# In ChEMBL document CHEMBL1148954, “Two new cytotoxic tetracyclic tetraterpenoids from the soft coral Sarcophyton tortuosum” (J Nat Prod, 2004):
# Key:
# [1] = Cytotoxicity against human CNE2 cells by MTT assay; assay type: functional, cell-based; conditions: CNE-2
# P388 = assay: Cytotoxicity against mouse P388 cells by MTT assay; assay type: functional, cell-based
SMILES,IC50 [1] [µg/mL],IC50 (P388) [µg/mL]
COC(=O)[C@@]12CC(=O)[C@@H](C(C)C)CC(=O)[C@@H](C)CCC[C@@H](C)CC(=O)[C@@H]1CC(C)=C1[C@H]2/C=C(\C)CC[C@H]2O[C@@H](CC=C2C)[C@](C)(O)C[C@@H]1O [METHYL TORTUOATE A],22.7,3.5
COC(=O)[C@@]12CC(=O)[C@@H](C(C)C)CC(=O)[C@@H](C)CCC[C@@H](C)CC(=O)[C@@H]1CC(C)=C1[C@@H]3C[C@@](C)(O)[C@H](CC[C@@H](C)C(=O)CC/C(C)=C/[C@H]12)O3 [METHYL TORTUOATE B],24.7,5
